ChEMBL document CHEMBL3045307, “Synthesis, characterization, and urease inhibition of 5-substituted-8-methyl-2H-pyrido[1,2-a]pyrimidine-2,4(3H)-diones” (Med Chem Res, 2012)

Legend:
[1] = target: Urease (Canavalia ensiformis) (UniProt P07374); assay: Inhibition of Canavalia ensiformis (jack bean) urease assessed as ammonia production using urea as substrate at 0.01 uM after 15 min by indophenol method
[2] = target: Urease (Canavalia ensiformis) (UniProt P07374); assay: Inhibition of Canavalia ensiformis (jack bean) urease assessed as ammonia production using urea as substrate at 100 uM after 15 min by indophenol method
[3] = target: Urease (Canavalia ensiformis) (UniProt P07374); assay: Inhibition of Canavalia ensiformis (jack bean) urease assessed as ammonia production using urea as substrate at 10 uM after 15 min by indophenol method
[4] = target: Urease (Canavalia ensiformis) (UniProt P07374); assay: Inhibition of Canavalia ensiformis (jack bean) urease assessed as ammonia production using urea as substrate at 1 uM after 15 min by indophenol method
[5] = target: Urease (Canavalia ensiformis) (UniProt P07374); assay: Inhibition of Canavalia ensiformis (jack bean) urease assessed as ammonia production using urea as substrate at 0.1 uM after 15 min by indophenol method

Sequence of Urease (Canavalia ensiformis) (P07374 whole entry, looked up): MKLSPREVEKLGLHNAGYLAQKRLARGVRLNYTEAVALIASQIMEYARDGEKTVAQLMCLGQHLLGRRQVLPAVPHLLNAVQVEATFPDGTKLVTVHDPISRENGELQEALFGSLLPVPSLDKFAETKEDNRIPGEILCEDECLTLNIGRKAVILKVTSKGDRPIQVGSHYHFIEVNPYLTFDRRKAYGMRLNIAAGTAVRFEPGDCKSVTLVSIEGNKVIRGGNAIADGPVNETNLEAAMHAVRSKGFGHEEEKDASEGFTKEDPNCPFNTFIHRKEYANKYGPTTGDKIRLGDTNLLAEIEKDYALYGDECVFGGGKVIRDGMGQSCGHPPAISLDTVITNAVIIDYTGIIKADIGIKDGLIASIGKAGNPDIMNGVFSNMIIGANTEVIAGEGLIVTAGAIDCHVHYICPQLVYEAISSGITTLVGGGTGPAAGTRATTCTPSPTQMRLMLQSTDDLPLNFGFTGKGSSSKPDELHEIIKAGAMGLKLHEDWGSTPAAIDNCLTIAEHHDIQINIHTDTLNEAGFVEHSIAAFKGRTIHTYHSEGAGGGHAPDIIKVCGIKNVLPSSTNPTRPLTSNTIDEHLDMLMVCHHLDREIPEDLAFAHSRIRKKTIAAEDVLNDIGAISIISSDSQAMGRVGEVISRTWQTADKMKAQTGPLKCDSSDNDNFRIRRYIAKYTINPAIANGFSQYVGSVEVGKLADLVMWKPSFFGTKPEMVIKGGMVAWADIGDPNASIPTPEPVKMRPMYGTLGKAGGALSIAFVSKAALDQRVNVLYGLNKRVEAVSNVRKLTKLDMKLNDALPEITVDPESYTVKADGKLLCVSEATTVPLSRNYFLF

SMILES | inhibition [1] | inhibition [2] | inhibition [3] | inhibition [4] | inhibition [5]
CC1=CC2=NC(=O)/C(=C\NNC(=O)c3ccccc3)C(=O)N2C=C1 | -1% | 26% | 13% | 6% | 1%
CC(=O)c1cccc(N/C=C2\C(=O)N=C3C=C(C)C=CN3C2=O)c1 | -1% | 45% | 28% | 8% | 3%
CC1=CC2=NC(=O)/C(=C\Nc3ccc([N+](=O)[O-])cn3)C(=O)N2C=C1 | 3% | 48% | 36% | 23% | 6%
CC1=CC2=NC(=O)/C(=C\Nc3c(C)cc(C)cc3C)C(=O)N2C=C1 | – | 0.2% | -8% | -1% | -6%
CC1=CC2=NC(=O)/C(=C\Nc3ccc(C)cn3)C(=O)N2C=C1 | 3% | 57% | 48% | 24% | 11%
CC1=CC2=NC(=O)/C(=C\NNC(=O)c3ccc(Cl)cc3)C(=O)N2C=C1 | -4% | 43% | 14% | 6% | -2%
CC1=CC2=NC(=O)/C(=C\Nc3ccccc3F)C(=O)N2C=C1 | 3% | 57% | 44% | 26% | 10%
NC(N)=S | 8% | 94% | 21% | 15% | 8%
CC1=CC2=NC(=O)/C(=C\Nc3cccc(F)c3)C(=O)N2C=C1 | – | 28% | 3% | – | –
CC1=CC2=NC(=O)/C(=C\NNC(=O)c3ccc(Br)cc3)C(=O)N2C=C1 | -8% | 57% | 23% | 3% | -2%
CC1=CC2=NC(=O)/C(=C\NNC(=O)c3ccc(O)cc3)C(=O)N2C=C1 | -5% | 39% | 22% | 7% | -1%
CC1=CC2=NC(=O)/C(=C\Nc3cc(C)ccn3)C(=O)N2C=C1 | 1% | 33% | 20% | 16% | 6%
CC1=CC2=NC(=O)/C(=C\Nc3ccc(F)cc3)C(=O)N2C=C1 | 1% | 35% | 21% | 14% | 6%
CC(=O)c1ccc(N/C=C2\C(=O)N=C3C=C(C)C=CN3C2=O)cc1 | -3% | 18% | 5% | 1% | -2%
CC(=O)c1ccccc1N/C=C1\C(=O)N=C2C=C(C)C=CN2C1=O | 11% | 69% | 54% | 32% | 19%
CC1=CC2=NC(=O)/C(=C\Nc3ccccc3S)C(=O)N2C=C1 | 22% | 97% | 73% | 60% | 28%
CC1=CC2=NC(=O)CC(=O)N2C=C1 | 1% | 39% | 26% | 12% | 6%
CC1=CC2=NC(=O)/C(=C\NNC(=O)c3ccc([N+](=O)[O-])cc3)C(=O)N2C=C1 | 6% | 87% | 60% | 54% | 21%
